{"source": "patent US20220024882A1", "about": "“NOVEL TUMOR ANTIGEN BINDING AGENTS AND USES THEREOF” (ITM Isotopen Technologien München AG, priority 2018, published 2022)", "key": {"[1]": {"assay": "Whole-body activity measurements, tumor-bearing mice", "assay_type": "in vivo, athymic nude Balb/c mice", "conditions": "4 h p.i., 30 MBq, 1 nmol i.v., activity right after injection = 100%", "procedure": "(§1) In vivo experiments were approved by the local veterinarian department and conducted in accordance with the Swiss law of animal protection. Mice were obtained from Charles River Laboratories, Sulzfeld, Germany, at the age of 5-6 weeks. Female, athymic nude Balb/c mice were subcutaneously inoculated with PSMA-positive PC-3 PIP cells (6×10^6 cells in 100 μL Hank's balanced salt solution (HBSS) with Ca^2+/Mg^2+) on the right shoulder and with PSMA-negative PC-3 flu cells (5×10^6 cells in 100 μL HBSS Ca^2+/Mg^2+) on the left shoulder. Two weeks later, the tumors reached a size of about 80-300 mm^3 suitable for the performance of the imaging studies.\nThe single radioligands (specific activity: 30 MBq/nmol) were diluted in 0.9% NaCl containing 0.05% bovine serum albumin (BSA) and i.v. injected into PC-3 PIP/flu tumor bearing mice (30 MBq, 1 nmol, 100 μL) for SPECT/CT imaging purposes. The mice were measured in a dose calibrator at 4 h, 24 h, 48 h and 72 h p.i., respectively."}, "[2]": {"assay": "Whole-body activity measurements, non-tumor bearing mice", "assay_type": "in vivo", "conditions": "4 h after injection, 25 MBq, 1 nmol i.v.", "procedure": "All albumin-binding radioligands (molar activity: 25 MBq/nmol) were diluted in 0.9% NaCl containing 0.05% BSA and i.v. injected into non-tumor bearing mice (25 MBq, 1 nmol, 100 μL). The mice were measured in a dose calibrator at various time-points up to 56 h p.i. The radioligands were compared with previously obtained data from ^177Lu-PSMA-617."}, "[3]": {"system": "PC-3 PIP/flu tumor-bearing mice", "assay": "Biodistribution study in PC-3 PIP/flu tumor-bearing mice", "assay_type": "in vivo, athymic nude Balb/c mice", "conditions": "for PC-3 flu Tumor: PSMA-negative tumor xenograft; for PC-3 flu Tumor / PC-3 PIP Tumor: mice; for PC-3 PIP Tumor: PSMA-positive tumor xenograft", "procedure": "as §1, with “biodistribution” for “imaging”\nBiodistribution studies were performed 12-15 days after PC-3 PIP/flu tumor cell inoculation. […] The radioligands were injected in a lateral tail vein in a volume of 100-200 μL. Mice were euthanized at different time points after injection (p.i.) of the radioligands. Selected tissues and organs were collected, weighed and measured using a γ-counter. The results were decay-corrected and listed as a percentage of the injected activity per gram of tissue mass (% IA/g) (Table 3 and 4).\nMice were obtained from Charles River Laboratories, Sulzfeld, Germany, at the age of 5-6 weeks. Female, athymic nude BALB/c mice were subcutaneously inoculated with PSMA-positive PC-3 PIP cells (6×10^6 cells in 100 μL Hank's balanced salt solution (HBSS)) on the right shoulder and with PSMA-negative PC-3 flu cells (5×10^6 cells in 100 μL HBSS) on the left shoulder. Two weeks later, the tumors reached a size of about 80-300 mm^3 suitable for the performance of the biodistribution and imaging studies.\nBiodistribution studies were performed 12-15 days after PC-3 PIP/flu tumor cell inoculation. ^177Lu-Ibu-sPSMA was diluted in 0.9% NaCl containing 0.05% bovine serum albumin (BSA) to prevent adhesion to the vial and syringe material. The radioligand was injected in a lateral tail vein in a volume of 100 μL. Mice were euthanized at different time points after injection (p.i.) of the radioligand. Selected tissues and organs were collected, weighed and measured using a γ-counter. The results were decay-corrected and listed as a percentage of the injected activity per gram of tissue mass (% IA/g) (Table 6, FIG. 18)."}, "[4]": {"system": "PSMA-positive PC-3 PIP tumor-bearing mice", "assay": "In vivo therapy study", "parameters": "species or system athymic nude BALB/c mice", "conditions": "for first mouse of group euthanized / median survival / TGDI5 (tumor growth delay index, 5-fold increase of tumor size): 1 nmol per mouse; for TGDI5 (tumor growth delay index, 5-fold increase of tumor size): controls = 1.0", "procedure": "Mice were obtained from Charles River Laboratories, Sulzfeld, Germany, at the age of 5-6 weeks. Female, athymic nude BALB/c mice were subcutaneously inoculated with PSMA-positive PC-3 PIP cells (4×10^6 cells in 100 μL Hank's balanced salt solution (HBSS)) on the right shoulder. Six days later, the tumors reached a size of about 30-160 mm^3 suitable for the performance of the in vivo therapy study. Mice were euthanized when a predefined endpoint criterion was reached or when the study was finalized at Day 84. Endpoint criteria were defined as (i) body weight loss of >15%, (ii) a tumor volume of >800 mm^3 (iii) a combination of body weight loss of >10% and a tumor volume of >700 mm^3 or (iv) signs of unease and pain or a combination thereof.\nSix days after subcutaneous inoculation of 4×10^6 PC-3 PIP tumor cells inoculation, three groups with statistically similar body weight and tumor volumes were intravenously injected. One group was injected with only the vehicle (saline containing 0.05% bovine serum albumin (BSA); Group A; n=6), and another two groups with ^177Lu-Ibu-DAB-PSMA (Group B: 2 MBq, 1 nmol (n=6) and Group C: 5 MBq, 1 nmol (n=6)) at Day 0 of the therapy study (Table 7). The monitoring of mice and the assessment of the therapy study was conducted as described by Eiber et al., J. Nucl. Med., 2017, 58 (Suppl. 2) 67S-76S). In short, the mice were monitored by measuring body weight and tumor size every second day over a period of 12 weeks. The relative body weight (RBW) was defined as [BWx/BW0], where BWx is the body weight in grams at a given Day x and BW0 is the body weight in grams at Day 0. The tumor dimensions were determined by measuring the longest tumor axis (L) and its perpendicular axis (W) with a digital caliper. The tumor volume (V) was calculated according to the equation [V=0.5×(LW^2)]. The relative tumor volume (RTV) was defined as [TVx/TV0], where TVx is the tumor volume in mm^3 at a given day x, and TV0 is the tumor volume in mm^3 at Day 0.\nThe efficacy of the radionuclide therapy was expressed as the tumor growth delay (TGDx), which was calculated as the time required for the tumor volume to increase x-fold over the initial volume at Day 0. The tumor growth delay index [TGDIx=TGDx(T)/TGDx(C)] was calculated as the TGDx ratio of treated mice (T) over the TGDx average of control mice (C) for a 5-fold (x=5, TGD5) increase of the initial tumor volume. The median survival was calculated using GraphPad Prism software (version 7). Survival of mice was assessed using Kaplan-Meier curves to determine median survival of mice of each group using Graph Pad Prism software (version 7)."}, "[5]": {"conditions": "4 h p.i., PC-3 PIP/flu tumor-bearing mice"}, "[6]": {"conditions": "24 h p.i., PC-3 PIP/flu tumor-bearing mice"}}, "note": "Where “and” joins values, the source holds several entries; their conditions need not be identical. Equal entries are not always repeated.", "data": [{"smiles": "CC(C)Cc1ccc(C(C)C(=O)NC(CCN)C(=O)NCCCCC(NC(=O)CN2CCN(CC(=O)O)CCN(CC(=O)O)CCN(CC(=O)O)CC2)C(=O)NCC2CCC(C(=O)NC(Cc3ccc4ccccc4c3)C(=O)NCCCCC(NC(=O)NC(CCC(=O)O)C(=O)O)C(=O)O)CC2)cc1", "note": "(stereo not shown) [^177Lu-Ibu-DAB-PSMA, metal not drawn]", "values": [{"measurement": "whole-body retention of radioactivity", "setting": "[1]", "result": 17, "unit": "%"}, {"measurement": "whole-body retained activity", "setting": "[2]", "result": 18, "unit": "%"}, {"measurement": "Blood", "setting": "[3]; [5]", "result": "3.66 ± 0.45", "unit": "% IA/g"}, {"measurement": "Bone", "setting": "[3]; [5]", "result": "0.62 ± 0.08", "unit": "% IA/g"}, {"measurement": "Heart", "setting": "[3]; [5]", "result": "1.32 ± 0.10", "unit": "% IA/g"}, {"measurement": "Intestines", "setting": "[3]; [5]", "result": "0.71 ± 0.05", "unit": "% IA/g"}, {"measurement": "Kidneys", "setting": "[3]; [5]", "result": "19.4±1.84", "unit": "% IA/g"}, {"measurement": "Liver", "setting": "[3]; [5]", "result": "1.50 ± 0.12", "unit": "% IA/g"}, {"measurement": "Lung", "setting": "[3]; [5]", "result": "2.40 ± 0.31", "unit": "% IA/g"}, {"measurement": "Muscle", "setting": "[3]; [5]", "result": "0.54 ± 0.09", "unit": "% IA/g"}, {"measurement": "Salivary glands", "setting": "[3]; [5]", "result": "0.86 ± 0.38", "unit": "% IA/g"}, {"measurement": "Spleen", "setting": "[3]; [5]", "result": "1.14 ± 0.11", "unit": "% IA/g"}, {"measurement": "Stomach", "setting": "[3]; [5]", "result": "0.62 ± 0.12", "unit": "% IA/g"}, {"measurement": "Tumor-to-blood", "setting": "[3]; [5]", "result": "18.2 ± 2.69"}, {"measurement": "Tumor-to-kidney", "setting": "[3]; [5]", "result": "3.01 ± 0.49"}, {"measurement": "Tumor-to-liver", "setting": "[3]; [5]", "result": "44.6 ± 8.41"}, {"measurement": "PC-3 flu Tumor", "setting": "[3]; 4 h p.i.", "result": "1.19 ± 0.30", "unit": "% IA/g"}, {"measurement": "PC-3 PIP Tumor", "setting": "[3]; 4 h p.i.", "result": "66.2 ± 11.0", "unit": "% IA/g"}, {"measurement": "Bone", "setting": "[3]; [6]", "result": "0.09 ± 0.02", "unit": "% IA/g"}, {"measurement": "Heart", "setting": "[3]; [6]", "result": "0.10 ± 0.01", "unit": "% IA/g"}, {"measurement": "Intestines", "setting": "[3]; [6]", "result": "0.11 ± 0.03", "unit": "% IA/g"}, {"measurement": "Kidneys", "setting": "[3]; [6]", "result": "6.00±0.68", "unit": "% IA/g"}, {"measurement": "Liver", "setting": "[3]; [6]", "result": "0.56 ± 0.10", "unit": "% IA/g"}, {"measurement": "Lung", "setting": "[3]; [6]", "result": "0.21 ± 0.03", "unit": "% IA/g"}, {"measurement": "Muscle", "setting": "[3]; [6]", "result": "0.05 ± 0.01", "unit": "% IA/g"}, {"measurement": "Salivary glands", "setting": "[3]; [6]", "result": "0.56 ± 0.37", "unit": "% IA/g"}, {"measurement": "Spleen", "setting": "[3]; [6]", "result": "0.32 ± 0.03", "unit": "% IA/g"}, {"measurement": "Stomach", "setting": "[3]; [6]", "result": "0.18 ± 0.13", "unit": "% IA/g"}, {"measurement": "Tumor-to-blood", "setting": "[3]; [6]", "result": "337 ± 40.4"}, {"measurement": "Tumor-to-kidney", "setting": "[3]; [6]", "result": "8.88 ± 0.99"}, {"measurement": "Tumor-to-liver", "setting": "[3]; [6]", "result": "98.3 ± 21.1"}, {"measurement": "PC-3 flu Tumor", "setting": "[3]; 24 h p.i.", "result": "0.17 ± 0.01", "unit": "% IA/g"}, {"measurement": "PC-3 PIP Tumor", "setting": "[3]; 24 h p.i.", "result": "52.4 ± 2.35", "unit": "% IA/g"}, {"measurement": "first mouse of group euthanized", "setting": "[4]; 2 MBq", "result": 26, "unit": "days"}, {"measurement": "median survival", "setting": "[4]; 2 MBq", "result": 34, "unit": "days"}, {"measurement": "TGDI5 (tumor growth delay index, 5-fold increase of tumor size)", "setting": "[4]; 2 MBq", "result": "1.6 and 1.6 ± 0.4"}, {"measurement": "average relative body weight at the time of euthanasia", "setting": "[4]; 5 MBq per mouse", "result": "1.06±0.10"}, {"measurement": "day on which the two mice with tumor regrowth reached the endpoint", "setting": "[4]; 5 MBq per mouse", "result": "70 days and 82 days"}, {"measurement": "mice of the group in which the tumors disappeared entirely", "setting": "[4]; 5 MBq per mouse, n=6", "result": "four"}, {"measurement": "mice still alive at the end of the study at Day 84", "setting": "[4]; 5 MBq per mouse, n=6", "result": "four"}, {"measurement": "first mouse of group euthanized", "setting": "[4]; 5 MBq", "result": 70, "unit": "days"}, {"measurement": "TGDI5 (tumor growth delay index, 5-fold increase of tumor size)", "setting": "[4]; 5 MBq", "result": "not defined"}, {"measurement": "median survival", "setting": "[4]; 5 MBq, study end Day 84", "result": "undefined"}]}]}
